In general, IC50 refers to the concentration that gives 50% inhibition. A higher IC50 goes with weaker potency in that assay. For orientation: IC90 means the concentration at which the effect reaches the 90% level. Higher therefore signals a need for much substance.

Where “and” joins values, the source holds several entries; their conditions need not be identical. Equal values may be shown once.

Data set [1] deals with Trypanosoma cruzi. Briefly: microbe, parasite or virus in culture. The class given is functional, organism-based, Tulahuen LacZ, Clone C4.
Data set [2] is described as follows: (§1) DNDI: Cytotoxicity against L-6 rat myoblasts from skeletal muscle cells. The settings on record: L6 rat skeletal muscle myoblast cells.
For data set [3], the system named is L6. Described as §1. The settings on record: L6 rat skeletal muscle myoblast cells.
In data set [4] the test system is Trypanosoma cruzi. Briefly: microbe, parasite or virus in culture. The class given is functional, Tulahuen LacZ, Clone C4.
Setting [5] is: Trypanosoma cruzi, Tulahuen LacZ, Clone C4.

With `CC(C)Oc1ccc(C(O)(c2ccc(Cl)cc2)c2cccnc2)cc1` (stereo not given), the half-inhibitory concentration (IC50) in data set [1] is 8.2 nM and 2 nM; in data set [2] it was 52000 nM; in data set [3], 56600 nM. Moreover, the IC90 in data set [4] is 18 nM and 6 nM.
As for `O=C(NC1CCN(C(c2ccc(C(F)(F)F)cc2)c2cccnc2)CC1)c1c(F)cccc1F` (stereo not given), the IC50 was 8.5 nM in data set [1], 16.5 nM in data set [1] (setting [5]), 56700 nM in data set [2] (IC50) and greater than 100000 nM in data set [3]. Moreover, the IC90 worked out at 37 nM in data set [4] and 24 nM in data set [4] (setting [5]).
Turning to `Fc1cc(Cl)ccc1C(NC1CCN(c2ccc(C(F)(F)F)cc2F)CC1)c1cccnc1` (stereo not given), the IC50 in data set [1] is 8 nM and 16.5 nM; in data set [2] (IC50) it was 51500 nM; in data set [3], 53000 nM. The results for the IC90 in data set [4] and in data set [4] (setting [5]) were 31.5 nM and 24 nM, respectively.
Turning to `CON=C(Cc1cccnc1)c1ccc(Cl)cc1Cl`, the IC50 in data set [1] was 210 nM and 470 nM and 294 nM; in data set [2] (IC50) it was greater than 100000 nM; in data set [3] it was 81000 nM.
In the case of `Fc1cc(Cl)ccc1C(NC1CCN(c2ccc(C(F)(F)F)cc2)CC1)c1cccnc1` (stereo not given), the 50% inhibitory concentration (IC50) in data set [1] was 11 nM and 10.5 nM; in data set [1] (setting [5]), 9.5 nM; in data set [2] (IC50), 55700 nM; in data set [3], 52400 nM. The concentration for an effect of 90% (IC90) in data set [4] was 37.5 nM and 34 nM; in data set [4] (setting [5]), 29.5 nM.
For `FC(F)(F)c1ccc(N2CCC(NC(c3ccc(Cl)cc3)c3cccnc3)CC2)cn1` (stereo not given), the half-maximal inhibitory concentration (IC50) in data set [1] came to 6.6 nM; in data set [1] (setting [5]), 7 nM; in data set [2] (IC50) it was 39600 nM; in data set [3] it was 54400 nM. The IC90 in data set [4] turned out to be 16 nM; in data set [4] (setting [5]) it was 17.5 nM.
On to `N#Cc1cccc(N2CCC(NC(c3cccnc3)c3ccc(Cl)cc3F)CC2)c1` (stereo not given), for which the IC50 was 12.5 nM in data set [1], 21 nM in data set [1] (setting [5]), 55400 nM in data set [2] (IC50) and 32200 nM in data set [3]. For the same molecule, the IC90 in data set [4] came to 34 nM; in data set [4] (setting [5]), 37 nM.
With `FC(F)(F)c1ccc(N2CCC(NC(c3ccc(Cl)cc3)c3cccnc3)CC2)nc1` (stereo not given), the IC50 in data set [1] was 19 nM and 46 nM; in data set [2] (IC50), 55300 nM; in data set [3], 62500 nM. Also, the IC90 amounted to 90 nM in data set [4] and 48 nM in data set [4] (setting [5]).
As to `CS(=O)(=O)c1ccc(N2CCC(NC(c3cccnc3)c3ccc(Cl)cc3F)CC2)cc1` (stereo not given), the half-maximal inhibitory concentration (IC50) in data set [1] was 2.6 nM and 6 nM; in data set [2] (IC50) it was 49700 nM; in data set [3] it was 26600 nM. The IC90 in data set [4] amounted to 8 nM; in data set [4] (setting [5]), 7.5 nM.
On to `OC(c1ccc(Cl)cc1)(c1cccnc1)c1ccc(F)cc1F` (stereo not given), for which the IC50 is 16.4 nM in data set [1] (setting [5]) and 70200 nM in data set [3]. Also, the 90% effect level in data set [4] (setting [5]) (IC90) was put at 29 nM.
The corresponding values for `N#CC(c1ccc(Cl)cc1)(c1cccnc1)c1ccccc1Cl` (stereo not given) are 50 nM, 56800 nM and 220 nM.
The corresponding values for `Fc1cc(Cl)ccc1C(c1cccnc1)N1CCN(c2ccccc2)CC1` (stereo not given) are 18 nM, 57600 nM and 40 nM.
For `Cc1ccc(C(O)(c2ccc(Cl)cc2)c2cncnc2)cc1` (stereo not given), the IC50 in data set [1] was 68 nM and 23.8 nM; in data set [2] (IC50), 79300 nM; in data set [3], 67400 nM. In addition, the results for the IC90 in data set [4] and in data set [4] (setting [5]) were 310 nM and 158 nM, respectively.
On to `O=C(C1CCCCC1)N1CCC(NC(c2ccc(C(F)(F)F)cc2)c2cnccn2)CC1` (stereo not given), for which the IC50 in data set [1] came out at 250 nM; in data set [3], 92400 nM. This molecule also had an IC90 in data set [4] of 860 nM.
As for `CN(C)c1ccc(C(O)(c2ccc(C(F)(F)F)cc2)c2cccnc2)cc1` (stereo not given), the half-maximal inhibitory concentration (IC50) came out at 6 nM in data set [1] (setting [5]) and 59100 nM in data set [3]. It took 28 nM to reach the 90% level in data set [4] (setting [5]) (IC90).
Take `O=S(=O)(c1ccc(Cl)cc1)N1CCN(C(c2ccc(Cl)cc2)c2cccnc2)CC1` (stereo not given): the results for the 50% inhibitory concentration (IC50) in data set [1] (setting [5]) and in data set [3] were 24 nM and 23000 nM, respectively. In data set [4] (setting [5]), the IC90 was 97 nM.
For `CC(C)(C)OC(=O)N1CCN(C(c2cccnc2)c2ccc(Cl)cc2F)CC1` (stereo not given), in that order: 20 nM, 43500 nM and 94 nM.
For `O=C(c1ccccc1)N1CCN(C(c2cccnc2)c2ccc(Cl)cc2F)CC1` (stereo not given), the IC50 came out at 70 nM in data set [1] (setting [5]) and 68600 nM in data set [3]. The molecule further returned an IC90 in data set [4] (setting [5]) of 220 nM.
The corresponding values for `OC(c1ccc(Br)cc1)(c1ccc(C(F)(F)F)cc1)c1cccnc1` (stereo not given) are 20 nM, 54700 nM and 30 nM.
For `Fc1cc(Cl)ccc1C(c1cncnc1)N1CCN(c2ccccc2)CC1` (stereo not given), in that order: 78 nM, 62700 nM and 270 nM.
For `COc1ccccc1N1CCN(C(c2ccc(OC(C)C)cc2)c2cccnc2)CC1` (stereo not given), in that order: 28 nM, 77400 nM and 90 nM.
As for `CC(C)(C)OC(=O)N1CCN(C(c2cncnc2)c2ccc(Cl)cc2F)CC1` (stereo not given), the IC50 in data set [1] (setting [5]) came out at 24 nM; in data set [3], 63900 nM. This molecule also gave an IC90 in data set [4] (setting [5]) of 420 nM.
The corresponding values for `CC(C)CNC(c1ccc(Cl)cc1)(c1cccnc1)c1ccccc1Cl` (stereo not given) are 606 nM, 59200 nM and 1320 nM.
Consider `CC(C)c1ccc(S(=O)(=O)N2CCN(C(c3ccc(Cl)cc3)c3cccnc3)CC2)cc1` (stereo not given), for which the IC50 was 12 nM in data set [1] (setting [5]) and 80200 nM in data set [3]. In data set [4] (setting [5]), this molecule yielded a 90% effect concentration (IC90) of 57 nM.
Consider `OC(c1ccc(Cl)cc1)(c1cccnc1)c1ccc(C(F)(F)F)cc1F` (stereo not given), for which the figures for the IC50 in data set [1] (setting [5]) and in data set [3] were 21 nM and 57400 nM, respectively. Also, in data set [4] (setting [5]), the IC90 was found to be 70 nM.
For `O=C(C1CCCCC1)N1CCN(C(c2cccnc2)c2ccc(Cl)cc2F)CC1` (stereo not given), in that order: 28 nM, 61700 nM and 200 nM.
For `COc1cccc(C(O)(c2ccc(Cl)cc2)c2cccnc2)c1` (stereo not given), in that order: 61 nM, 85600 nM and 315 nM.
For the molecule `N#Cc1ccc(C(O)(c2ccc(C(F)(F)F)cc2)c2cccnc2)c(F)c1` (stereo not given), the IC50 in data set [1] is 5.5 nM and 1.9 nM; in data set [2] (IC50), 77200 nM; in data set [3], 56100 nM. The values for the IC90 in data set [4] and in data set [4] (setting [5]) were 9.52 nM and 12.5 nM, respectively.
As to `O=C(Nc1ccc(Cl)cc1)N1CCN(C(c2ccc(Cl)cc2)c2cncnc2)CC1` (stereo not given), the IC50 stood at 22 nM in data set [1] (setting [5]) and 58800 nM in data set [3]. It took 65 nM to reach the 90% level in data set [4] (setting [5]) (IC90).
In the case of `OC(c1ccc(Cl)cc1)(c1cccnc1)c1cccs1` (stereo not given), the IC50 in data set [1] was 17 nM; in data set [1] (setting [5]), 13 nM; in data set [2] (IC50), greater than 100000 nM; in data set [3], 67700 nM. In addition, the figures for the IC90 in data set [4] and in data set [4] (setting [5]) were 99 nM and 108 nM, respectively.
Regarding `OC(c1ccc(Cl)cc1)(c1cccnc1)c1ccccc1Cl` (stereo not given), the IC50 in data set [1] came to 210 nM; in data set [1] (setting [5]), 270 nM; in data set [2] it was 60000 nM; in data set [3], 61300 nM.
On to `OC(c1ccc(C(F)(F)F)cc1)(c1ccc(C(F)(F)F)cc1)c1cccnc1`, for which the IC50 is 14.9 nM in data set [1] (setting [5]) and 50600 nM in data set [3]. The same molecule displayed an IC90 in data set [4] (setting [5]) of 38 nM.
The corresponding values for `CC(C)Oc1ccc(C(O)(c2cccnc2)c2ccc(Cl)cc2F)cc1` (stereo not given) are 1.3 nM, 56000 nM and 3 nM.
For the molecule `OC(c1ccc(Cl)cc1)(c1cccnc1)c1cccc(Br)c1` (stereo not given), the IC50 in data set [1] (setting [5]) was found to be 54 nM; in data set [3], 54100 nM. In addition, it took 80 nM to reach the 90% level in data set [4] (setting [5]) (IC90).
For `OC(c1ccc(Cl)cc1)(c1ccc(C(F)(F)F)cc1)c1cccnc1` (stereo not given), in that order: 8.2 nM, 56400 nM and 30 nM.
For `COc1ccc(C(O)(c2ccc(Cl)cc2)c2cccnc2)cc1` (stereo not given), in that order: 40 nM, 68100 nM and 180 nM.
The corresponding values for `NC(c1ccc(Cl)cc1)(c1cccnc1)c1ccccc1Cl` (stereo not given) are 90 nM, 76000 nM and 5050 nM.
As to `OC(c1ccc(Cl)cc1)(c1cccnc1)c1ccccc1Br` (stereo not given), the IC50 in data set [1] (setting [5]) stood at 76 nM; in data set [3] it was 55200 nM. Moreover, it took 172 nM to reach the 90% level in data set [4] (setting [5]) (IC90).
`CC(C)CCON=C(Cc1cccnc1)c1ccc(Cl)cc1Cl`: the half-maximal inhibitory concentration (IC50) in data set [2] (IC50) was found to be 61000 nM; in data set [3] it was 58700 nM.
As to `OC(c1ccc(C(F)(F)F)cc1)(c1cccnc1)c1cc2ccccc2s1` (stereo not given), the results for the half-inhibitory concentration (IC50) in data set [1] (setting [5]) and in data set [3] were 20 nM and 58700 nM, respectively. In data set [4] (setting [5]), this molecule gave a 90% effect concentration (IC90) of 110 nM.
The corresponding values for `O=C(c1ccccc1)N1CCN(C(c2ccc(Cl)cc2)c2cccnc2)CC1` (stereo not given) are 68 nM, 61400 nM and 160 nM.
The corresponding values for `Clc1ccc(C(c2ccc(Cl)cc2)c2cncnc2)cc1` are 682 nM, 70100 nM and 6780 nM.
The corresponding values for `O=C(Oc1ccccc1)N1CCN(C(c2ccc(Cl)cc2)c2cccnc2)CC1` (stereo not given) are 8 nM, 55700 nM and 32 nM.

The values above are taken from ChEMBL document CHEMBL1862790, “Optimisation of fenarimol series for the treatment of Chagas disease”.
